{"source": "the NIST ThermoML archive (doi:10.1021/je301220s)", "note": "± gives the expanded uncertainty stated by the source.", "data": [{"conditions": "298.15 K; 101.33 kPa; Liquid; Vibrating tube method", "units": {"mass density": "kg/m3"}, "values": [{"smiles": "Cc1ccccc1C", "note": "[1,2-dimethylbenzene]", "mass density": "875.81 ± 0.16"}, {"smiles": "Cc1cccc(C)c1", "note": "[1,3-dimethylbenzene]", "mass density": "860.06 ± 0.16"}, {"smiles": "Cc1ccc(C)cc1", "note": "[1,4-dimethylbenzene]", "mass density": "856.54 ± 0.16"}, {"smiles": "CCC(C)CO", "note": "(stereo not given) [2-methyl-1-butanol]", "mass density": "814.83 ± 0.17"}, {"smiles": "CCc1ccccc1", "note": "[ethylbenzene]", "mass density": "862.57 ± 0.16"}]}, {"conditions": "Liquid", "units": {"Normal boiling temperature": "°C"}, "values": [{"smiles": "Cc1ccccc1C", "note": "[1,2-dimethylbenzene]", "Normal boiling temperature": "144.40 ± 0.5"}, {"smiles": "Cc1cccc(C)c1", "note": "[1,3-dimethylbenzene]", "Normal boiling temperature": "139.13 ± 0.5"}, {"smiles": "Cc1ccc(C)cc1", "note": "[1,4-dimethylbenzene]", "Normal boiling temperature": "138.28 ± 0.5"}, {"smiles": "CCC(C)CO", "note": "(stereo not given) [2-methyl-1-butanol]", "Normal boiling temperature": "128.76 ± 0.5"}, {"smiles": "CCc1ccccc1", "note": "[ethylbenzene]", "Normal boiling temperature": "136.16 ± 0.5"}]}]}
